Laboratory results as given in article PMC9848270, “Synthesis and biological assessment of indole derivatives containing penta-heterocycles scaffold as novel anticancer agents towards A549 and K562 cells” (Journal of Enzyme Inhibition and Medicinal Chemistry, 2023).
Where two headings read alike, the source gives them in different places.

Assays:
[1] = system: human non-small cell lung cancer cells (A549); test: MTT antiproliferative assay, A549; assay type: cell-based; conditions: for inhibition at 10 µM: A549, 10 μM, read-out: Inhibition rate, A549
Description: (§1) A549, PC-3, HepG2 and K562 cells were purchased from the Kunming cell bank of the Chinese academy of sciences. All cell lines were cultured in DMEM or RPMI 1640 complete medium. Logarithmic growth cells were cultured in 96-well plates at a concentration of 10^4 cells per well and pre-cultured for 24 h before adding test compounds. The MTT test with 5-Fluorouracil and Gefitinib as reference compounds were used to evaluate antiproliferative activity of target compounds in four human cancer line cells. For the estimation of the inhibition concentration (IC50), the Graph Pad Prism (GraphPad Software, San Diego, CA) was used.

[2] = system: human prostate cancer cells (PC-3); test: MTT antiproliferative assay, PC-3; assay type: cell-based; conditions: Homo sapiens; for IC50: 48 h, MTT assay, read-out: In vitro cytotoxicity IC50, PC-3; for inhibition at 10 µM: read-out: Inhibition rate, PC-3
Description: as §1

[3] = system: human liver cancer cells (HepG2); test: MTT antiproliferative assay, HepG2; assay type: cell-based; conditions: for inhibition at 10 µM: read-out: Inhibition rate, HepG2; for IC50: MTT assay, 48 h, read-out: In vitro cytotoxicity IC50, HepG2
Description: as §1

[4] = system: human chronic myeloid leukaemia cells (K562); test: MTT antiproliferative assay, K562; assay type: cell-based; conditions: for inhibition at 10 µM: K562, 10 μM, read-out: Inhibition rate, K562
Description: as §1

[5] = MTT cytotoxicity, normal cell line HEK293; assay type: cell-based, human; conditions: human; for IC50 at 48 h: HEK293 cells (normal cell line), MTT assay, normal cell line, CC50, read-out: In vitro cytotoxicity IC50, HEK293
[6] = system: normal cell line (HEK293); test: MTT cytotoxicity, normal cell line HEK293; assay type: cell-based, human; conditions: Homo sapiens, HEK293; 10 μM; read-out: Inhibition rate, HEK293
[7] = A549, 48 h, MTT assay, 48 h, read-out: In vitro cytotoxicity IC50, A549
[8] = K562, 48 h, MTT assay, 48 h, read-out: In vitro cytotoxicity IC50, K562

Row | Structure (SMILES) | inhibition at 10 µM [1] | IC50 [1, 7] | IC50 [2] | inhibition at 10 µM [2] | inhibition at 10 µM [3] | IC50 [3] | inhibition at 10 µM [4] | IC50 [4, 8] | IC50 at 48 h [5] | inhibition at 10 µM [6] | melting point | IC50 ([1]; A549, Table 2, unit inferred, repeats Table 1, read-out: A549 (IC50, Table 2)) | IC50 ([4]; K562, Table 2, unit inferred, repeats Table 1, read-out: K562 (IC50, Table 2)) | CC50 ([5]; HEK293 cells, Table 2, unit inferred, repeats Table 1)
1 | Nn1c(Cc2ccc(Cl)cc2)nnc1SCC(=O)Nc1cc(-c2c[nH]c3ccccc23)n[nH]1 [Compound 11d, N-(3-(1H-indol-3-yl)-1H-pyrazol-5-yl)-2-((4-amino-5–(4-chlorobenzyl)-4H-1,2,4-triazol-3-yl)thio)acetamide] | 87.4 ± 12.5% | 4.79 ± 0.21 µM | 8.42 ± 0.56 µM | 56.2 ± 9.24% | 16.3 ± 2.1% | 49.6 ± 10.2 µM | 95.4 ± 0.809% | 3.51 ± 1.05 µM | 11.6 ± 0.87 µM | 63.4 ± 7.49% | 240 to 241 °C |  |  | 
2 | COc1ccc(-c2nnc(SCC(=O)Nc3cc(-c4c[nH]c5ccccc45)n[nH]3)n2N)cc1 [Compound 11e, N-(3-(1H-indol-3-yl)-1H-pyrazol-5-yl)-2-((4-amino-5–(4-methoxyphenyl)-4H-1,2,4-triazol-3-yl)thio)acetamide] | 47.9 ± 9.44% | 21.4 ± 4.46 µM | 11.7 ± 1.64 µM | 54.7 ± 14.8% | 63.5 ± 20% | 10.4 ± 2.86 µM | 98.7 ± 0.418% | 4.32 ± 0.53 µM | 4.94 ± 0.75 µM | 67.3 ± 1.39% | 238 to 240 °C |  |  | 
3 | Nn1c(SCC(=O)Nc2cc(-c3c[nH]c4ccccc34)n[nH]2)nnc1-c1ccc(Cl)cc1 [Compound 11f, N-(3-(1H-indol-3-yl)-1H-pyrazol-5-yl)-2-((4-amino-5–(4-chlorophenyl)-4H-1,2,4-triazol-3-yl)thio)acetamide] | 32.8 ± 4.22% | 11.8 ± 3 µM | 19.1 ± 8.43 µM | 28.9 ± 3.01% | 46.9 ± 6.62% | 9.04 ± 0.93 µM | 25 ± 3.24% | 32.3 ± 4.05 µM | 18.1 ± 3.14 µM | 40.1 ± 2.19% | 214 to 215 °C |  |  | 
4 | Nn1c(SCC(=O)Nc2cc(-c3c[nH]c4ccccc34)n[nH]2)nnc1-c1ccccc1F [Compound 11g, N-(3-(1H-indol-3-yl)-1H-pyrazol-5-yl)-2-((4-amino-5–(2-fluorophenyl)-4H-1,2,4-triazol-3-yl)thio)acetamide] | 67.5 ± 1.65% | 10.1 ± 2.37 µM | 6.52 ± 1.85 µM | 72.2 ± 13.2% | 74.9 ± 25.5% | 9.65 ± 5.87 µM | 98.5 ± 0.653% | 3.78 ± 0.54 µM | 5.05 ± 1.17 µM | 65.4 ± 6.38% | 226 to 227 °C |  |  | 
5 | Nn1c(SCC(=O)Nc2cc(-c3c[nH]c4ccccc34)n[nH]2)nnc1-c1cccnc1 [Compound 11h, N-(3-(1H-indol-3-yl)-1H-pyrazol-5-yl)-2-((4-amino-5-(pyridine-3-yl)-4H-1,2,4-triazol-3-yl)thio)acetamide] | 97.8 ± 0.354% | 1.15 ± 0.26 µM | 3.16 ± 0.23 µM | 65.1 ± 0.595% | 93.6 ± 0.215% | 1.23 ± 0.06 µM | 98.6 ± 0.417% | 0.06 µM | 1.79 ± 0.63 µM | 77.8 ± 4.16% | 195 to 197 °C | 1.15 ± 0.26 µM | 0.0639 ± 0.02 µM | 1.79 ± 0.63 µM
6 | Nn1c(SCC(=O)Nc2cc(-c3c[nH]c4ccccc34)n[nH]2)nnc1-c1ccccn1 [Compound 11i, N-(3-(1H-indol-3-yl)-1H-pyrazol-5-yl)-2-((4-amino-5-(pyridine-2-yl)-4H-1,2,4-triazol-3-yl)thio)acetamide] | 94.8 ± 1.91% | 2.97 ± 0.83 µM | 2.77 ± 0.91 µM | 83.6 ± 5.66% | 95.3 ± 3.04% | 2.5 ± 1.44 µM | 99.5 ± 0.155% | 1.26 ± 0.24 µM | 1.45 ± 0.22 µM | 67.1 ± 2.18% | 208 to 210 °C |  |  | 
7 | Nn1c(SCC(=O)Nc2cc(-c3c[nH]c4ccccc34)n[nH]2)nnc1-c1ccccc1Cl [Compound 11j, N-(3-(1H-indol-3-yl)-1H-pyrazol-5-yl)-2-((4-amino-5–(2-chlorophenyl)-4H-1,2,4-triazol-3-yl)thio)acetamide] | 13.7 ± 1.49% | 56.8 ± 5.27 µM | 34.4 ± 2.57 µM | 17.8 ± 2.85% | 14.4 ± 0.686% | 50.6 ± 4.69 µM | 14.3 ± 0.525% | 42.4 ± 3.6 µM | 63 ± 0.87 µM | 10.9 ± 7.59% | 136 to 138 °C |  |  | 
8 | Nn1c(SCC(=O)Nc2cc(-c3c[nH]c4ccccc34)n[nH]2)nnc1-c1ccccc1 [Compound 11k, N-(3-(1H-indol-3-yl)-1H-pyrazol-5-yl)-2-((4-amino-5-phenyl-4H-1,2,4-triazol-3-yl)thio)acetamide] | 23.2 ± 0.539% | 23.9 ± 3.08 µM | 25.4 ± 2.77 µM | 23.1 ± 3.99% | 11.1 ± 0.757% | 73.1 ± 8.07 µM | 19.2 ± 3.55% | 39.7 ± 7.96 µM | 23.6 ± 4.14 µM | 0.497 ± 5.03% | > 300 °C |  |  | 
9 | Nc1ccc(-c2nnc(SCC(=O)Nc3cc(-c4c[nH]c5ccccc45)n[nH]3)n2N)cc1 [Compound 11l, N-(3-(1H-indol-3-yl)-1H-pyrazol-5-yl)-2-((4-amino-5–(4-aminophenyl)-4H-1,2,4-triazol-3-yl)thio)acetamide] | 96.7 ± 0.847% | 1.73 ± 0.3 µM | 2.88 ± 0.1 µM | 71.9 ± 4.55% | 93.5 ± 1.56% | 1.37 ± 0.57 µM | 99 ± 0.2% | 0.363 ± 0.1 µM | 1.38 ± 1.17 µM | 79.6 ± 2.23% | 213 to 215 °C |  |  | 
10 | Nn1c(SCC(=O)Nc2cc(-c3c[nH]c4ccccc34)n[nH]2)nnc1-c1ccc(Br)cc1 [Compound 11m, N-(3-(1H-indol-3-yl)-1H-pyrazol-5-yl)-2-((4-amino-5–(4-bromophenyl)-4H-1,2,4-triazol-3-yl)thio)acetamide] | 71.7 ± 5.61% | 5.81 ± 0.69 µM | 21.3 ± 2.75 µM | 32.8 ± 6.5% | 60.9 ± 7.02% | 10.7 ± 5.21 µM | 98.5 ± 0.434% | 2.57 ± 0.43 µM | 5.81 ± 0.88 µM | 54.2 ± 5.97% | 270 to 272 °C |  |  | 
11 | Nn1c(SCC(=O)Nc2cc(-c3c[nH]c4ccccc34)n[nH]2)nnc1-c1c[nH]c2ccccc12 [Compound 11n, N-(3-(1H-indol-3-yl)-1H-pyrazol-5-yl)-2-((4-amino-5-(1H-indol-3-yl)-4H-1,2,4-triazol-3-yl)thio)acetamide] | 31 ± 0.996% | 31.3 ± 3.29 µM | 10.4 ± 0.46 µM | 56.6 ± 12.9% | 80.5 ± 3.62% | 2.76 ± 1.74 µM | 97.1 ± 0.377% | 4.38 ± 0.45 µM | 5.02 ± 1.29 µM | 44.7 ± 4.73% | 230 to 232 °C |  |  | 
